Reference: patent US4492693A, “Benzothienylglycyl cephalosporin derivatives” (priority 1983, dated 1985)
Where two headings read alike, the source gives them in different places.

Columns and labels:
Assay type in all cases: cell-based
Strep. D = test: Agar Dilution MIC (Table I); conditions: read-out: Agar Dilution MIC
Description: (§1) A typical and preferred compound provided by this invention is 7-(3-benzothienyl)glycylamido-3-methyl-3-cephem-4-carboxylic acid, the compound illustrated in Example 9. The antibacterial activity of this compound has been determined in standard in vitro agar dilution assays against a variety of gram positive and gram negative microorganism. The following Tables present typical minimum inhibitory concentrations (MIC's) in μg/ml for several compounds of the invention when evaluated against the indicated microorganisms. MIC's for several known compounds are also presented for comparison.
Agar Dilution MIC (μg/ml)

E. coli = test: Agar Dilution MIC (Table I); conditions: Escherichia coli
Staph. epi [1] = test: Expanded Spectrum MIC (Table II)
Description: as §1
(§2) Expanded Spectrum MIC (μg/ml)

H. influenzae = test: Expanded Spectrum MIC (Table II); conditions: Haemophilus influenzae
Description: as §1, §2

Staph. aureus [2] = test: Expanded Spectrum MIC (Table II); conditions: Staphylococcus aureus
Description: as §1, §2

Klebsiella = test: Agar Dilution MIC (Table I); conditions: Klebsiella, read-out: Agar Dilution MIC
Staph. aureus [3] = test: Agar Dilution MIC (Table I); conditions: Staphylococcus aureus, read-out: Agar Dilution MIC
Strep. A = test: Agar Dilution MIC (Table I); conditions: strain C203; read-out: Agar Dilution MIC
Strep. PN = test: Agar Dilution MIC (Table I); conditions: strain PARK
[4] = test system: Bacteroides thetaiotaomicron; test: Susceptibility of Anaerobic Bacteroides Isolates by the Agar-Dilution Method (Table III); conditions: 24 h
Description: as §1
(§3) Susceptibility of Anaerobic Bacteroides Isolates by the
(§4) Agar-Dilution Method MIC (μg/ml) readings 24 hrs. after incubation

Bacteroides corrodens = test: as above; conditions: Eikenella corrodens; strain 1874; readings 24 hrs. after incubation
Description: as §1, §3, §4

Bacteroides fragilis = test: as above; conditions: 24 h
Description: as §1, §3, §4

Staph. epi [5] = test: Agar Dilution MIC (Table I); conditions: read-out: Agar Dilution MIC
H. influ. = test: Agar Dilution MIC (Table I); conditions: read-out: Agar Dilution MIC
[6] = strain 1438, readings 24 hrs. after incubation
[7] = strain 1900A, readings 24 hrs. after incubation
[8] = strain 9, readings 24 hrs. after incubation
[9] = strain 103, readings 24 hrs. after incubation
[10] = strain 104, readings 24 hrs. after incubation
[11] = strain 106, readings 24 hrs. after incubation
[12] = strain 107, readings 24 hrs. after incubation
[13] = strain 108, readings 24 hrs. after incubation
[14] = strain 110, readings 24 hrs. after incubation
[15] = strain 111, readings 24 hrs. after incubation
[16] = strain 1877, readings 24 hrs. after incubation

Measured: MIC

CC1=C(C(=O)O)N2C(=O)C(NC(=O)[C@H](N)c3csc4cc(F)ccc34)C2SC1 (stereo partly drawn) [Ex. 17, D-7-(6-Fluoro-3-benzothienyl)glycylamido-3-methyl-3-cephem-4-carboxylic acid]
8 µg/mL: Staph. aureus [3]; strain V41 | [4]; [6] | Bacteroides fragilis; [12] | Bacteroides fragilis; [16]
0.25 µg/mL: Staph. epi [1]; strain 286 | H. influenzae; strain 1683
4 µg/mL: Staph. epi [1]; strain EPI1 | Bacteroides fragilis; [8] | Bacteroides fragilis; [11] | Bacteroides fragilis; [13] | Bacteroides fragilis; [14] | Staph. epi [5]; strain EPI1
2 µg/mL: Staph. epi [1]; strain 269 | Staph. epi [1]; strain 270 | H. influenzae; strain C.L. | Klebsiella; strain X26 | Bacteroides fragilis; [10] | Staph. epi [5]; strain 222 | H. influ.; strain C.L.
128 µg/mL: Strep. D; strain X66 | E. coli; strain N10 | Klebsiella; strain KAE | Klebsiella; strain X68
32 µg/mL: [4]; [7] | Bacteroides fragilis; [15]
64 µg/mL: Strep. D; strain 2041 | E. coli; strain EC14 | E. coli; strain TEM | H. influenzae; strain M366 | H. influenzae; strain R465 | H. influenzae; strain STEL | Staph. aureus [3]; strain X400
16 µg/mL: Bacteroides corrodens | Bacteroides fragilis; [9]
0.5 µg/mL: Staph. epi [1]; strain 219 | H. influenzae; strain 105 | H. influenzae; strain 158 | H. influenzae; strain 164 | H. influenzae; strain 312 | H. influenzae; strain 1930 | H. influenzae; strain 4842 | H. influenzae; strain M370 | H. influenzae; strain M371 | Staph. aureus [2]; strain S228 | Staph. aureus [2]; strain S231 | Strep. PN | H. influ.; strain 76
0.125 µg/mL: Strep. A
1 µg/mL: Staph. epi [1]; strain 285 | H. influenzae; strain 76 | H. influenzae; strain 169 | H. influenzae; strain 171 | H. influenzae; strain HESS | Staph. aureus [2]; strain S224 | Staph. aureus [2]; strain S225 | Staph. aureus [2]; strain S226 | Staph. aureus [2]; strain S227 | Staph. aureus [2]; strain S229 | Staph. aureus [2]; strain S230 | Staph. aureus [2]; strain S234 | Staph. aureus [2]; strain S237 | Staph. aureus [2]; strain S238 | Staph. aureus [2]; strain S239 | Staph. aureus [3]; strain X1.1

CC1=C(C(=O)O)N2C(=O)C(NC(=O)[C@H](N)c3csc4ccc(F)cc34)C2SC1 (stereo partly drawn) [Ex. 18, D-7-(5-Fluoro-3-benzothienyl)glycylamido-3-methyl-3-cephem-4-carboxylic acid]
128 µg/mL: Strep. D; strain 2041 | Strep. D; strain X66 | E. coli; strain N10 | Klebsiella; strain KAE | Klebsiella; strain X68 | Bacteroides fragilis; [15]
16 µg/mL: [4]; [6] | Bacteroides fragilis; [10] | Bacteroides fragilis; [11] | Bacteroides fragilis; [12] | Bacteroides fragilis; [13] | Bacteroides fragilis; [14] | Bacteroides fragilis; [16]
4 µg/mL: Staph. epi [1]; strain 269 | Staph. epi [1]; strain 270 | Klebsiella; strain X26 | Staph. epi [5]; strain 222 | H. influ.; strain C.L.
1 µg/mL: Staph. epi [1]; strain 219 | Staph. epi [1]; strain 286 | H. influenzae; strain 76 | H. influenzae; strain 105 | H. influenzae; strain 158 | H. influenzae; strain 164 | H. influenzae; strain 169 | H. influenzae; strain 171 | H. influenzae; strain 312 | H. influenzae; strain 1930 | H. influenzae; strain 4842 | H. influenzae; strain M370 | H. influenzae; strain M371 | Staph. aureus [2]; strain S224 | Staph. aureus [2]; strain S225 | Staph. aureus [2]; strain S228 | Staph. aureus [2]; strain S230 | Staph. aureus [2]; strain S231 | Staph. aureus [3]; strain X1.1 | Strep. PN | H. influ.; strain 76
64 µg/mL: E. coli; strain EC14 | E. coli; strain TEM | H. influenzae; strain M366 | H. influenzae; strain R465 | H. influenzae; strain STEL | Staph. aureus [3]; strain X400 | Bacteroides corrodens | Bacteroides fragilis; [9]
0.25 µg/mL: H. influenzae; strain 1683 | Strep. A
8 µg/mL: Staph. epi [1]; strain EPI1 | Staph. aureus [3]; strain V41 | Bacteroides fragilis; [8] | Staph. epi [5]; strain EPI1
32 µg/mL: [4]; [7]
2 µg/mL: Staph. epi [1]; strain 285 | H. influenzae; strain C.L. | H. influenzae; strain HESS | Staph. aureus [2]; strain S226 | Staph. aureus [2]; strain S227 | Staph. aureus [2]; strain S229 | Staph. aureus [2]; strain S234 | Staph. aureus [2]; strain S237 | Staph. aureus [2]; strain S238 | Staph. aureus [2]; strain S239
